For orientation: IC50 means the concentration that gives 50% inhibition. Low readings indicate higher potency, high ones lower potency.

This test concerns the target T1, Glutathione reductase, mitochondrial (Homo sapiens, UniProt P00390).
T1 sequence (P00390 whole entry): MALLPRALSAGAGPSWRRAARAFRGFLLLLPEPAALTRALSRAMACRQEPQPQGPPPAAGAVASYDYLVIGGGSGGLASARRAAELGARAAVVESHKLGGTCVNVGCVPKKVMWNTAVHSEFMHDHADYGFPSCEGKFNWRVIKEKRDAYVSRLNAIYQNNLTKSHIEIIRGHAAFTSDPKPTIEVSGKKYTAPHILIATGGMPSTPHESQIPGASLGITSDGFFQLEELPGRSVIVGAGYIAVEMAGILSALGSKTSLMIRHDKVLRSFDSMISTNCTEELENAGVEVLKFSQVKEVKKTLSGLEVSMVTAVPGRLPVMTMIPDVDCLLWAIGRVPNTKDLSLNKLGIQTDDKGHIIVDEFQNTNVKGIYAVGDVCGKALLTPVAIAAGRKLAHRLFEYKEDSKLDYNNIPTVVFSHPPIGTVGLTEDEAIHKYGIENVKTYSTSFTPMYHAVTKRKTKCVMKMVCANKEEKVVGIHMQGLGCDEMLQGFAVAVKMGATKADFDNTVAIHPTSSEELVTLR
Put plainly: Inhibitory concentration against human glutathione reductase.

Molecules are shown by their SMILES.

`O=C(Cc1ccc2ccc(NC(=O)C[N]3CC[NH][Pt]3([Cl])[Cl])cc2c1)NNC(=O)c1ccc([N+](=O)[O-])o1` [2-(2-Amino-ethylamino)-N-(7-{2-[N'-(5-nitro-furan-2-carbonyl)-hydrazino]-2-oxo-ethyl}-naphthalen-2-yl)-acetamide; compound with GENERIC INORGANIC NEUTRAL COMPONENT] had a 50% inhibitory concentration (IC50) of 1000 nM.
